Experimental data taken from patent US20250255929A1, “METHODS FOR REDUCING RISKS ASSOCIATED WITH HEART FAILURE AND FACTORS ASSOCIATED THEREWITH” (Stealth BioTherapeutics Inc., priority 2012, published 2025).
Several values for one entry are separate records, joined by “and”; a condition that tells them apart may be missing. Identical values can stand only once. Square brackets hold non-standard residues; d marks the D form. Ends that are not written are not given here. Dmt = Cc1cc(O)cc(C)c1C[C@H](N)C(=O)O

Experiments:
Format in all cases: in vivo
TNF-alpha = experiment: Plasma TNF-alpha (double antibody sandwich ELISA) in dog model of heart failure; conditions: for plasma TNF-alpha levels (FIG. 4), in words: HF dogs
Protocol: The methods of Example 1 was used induce heart failure, administer peptide or vehicle, and to collect plasma samples for analysis. Fourteen dogs were used in this example. Half the dogs were treated with the peptide; the other half were treated with drug vehicle and served as controls. Peptide treatment was started in both groups upon induction of heart failure (HF), defined as left ventricular ejection fraction of approximately 30%.
TNF-alpha was quantified in EDTA-plasma using a double antibody sandwich ELISA. Briefly, TNF-alpha (Canine TNFα Duo Sett, Cat #DY1507) was purchased from R&D Systems. The assay was performed based on instructions provided by the supplier with minor modifications. The amount of EDTA-plasma incubated with antibody plate was 150 μl and incubation time was 18 hours at 4° C. Using standard curves and software, the concentration of TNFα was expressed as pg/ml.

NT-pro BNP = experiment: Plasma NT-pro BNP (double antibody sandwich ELISA) in dog model of heart failure; conditions: for plasma NT-pro BNP levels (FIG. 5), in words: HF dogs
Protocol: Heart failure was induced in dogs via multiple sequential intracoronary microembolizations as described in Sabbah, et al., Am J Physiol. (1991) 260:H1379-84, herein incorporated by reference in its entirety and summarized in Example 1.
Heart failure was induced as described in Example 1. […] Half the dogs were treated with the peptide; the other half were treated with drug vehicle and served as controls. Peptide treatment was started upon induction of heart failure (HF), defined as left ventricular ejection fraction of approximately 30%. The daily dose of the peptide was 0.5 mg/kg/day administered intravenously. Blood samples were drawn on EDTA anticoagulant and were centrifuged at 2,500 RPM and the plasma extracted, aliquoted in 1 ml volumes into crystat tubes and stored at −70° C. until assayed. Once the follow-up was completed in all dogs, the plasma samples were thawed to room temperature and NT-pro BNP was assayed.
Nt-pro BNP (pg/ml) was determined in EDTA-plasma on the principle of the double antibody sandwich Enzyme-linked immunosorbent assay (ELISA). The assay was performed based upon the instructions came along with the assay kit (NT-pro BNP, Kamiya Biomedical Company, Cat #KT-23770). Using standard curves with the help of Software (MasterPlex-2010), the concentration of each biomarker was determined.

[1] = system: mitochondrial ATP-sensitive potassium channel (mK ATP); experiment: mK ATP activation in LV mitochondria (thallium-sensitive fluorophore assay), dog model of heart failure; conditions: LV mitochondria of HF dogs after three months, 0.5 mg/kg/day, n=5; control 1372±112, p<0.05
Protocol: (§1) Heart failure was induced in dogs via multiple sequential intracoronary microembolizations as described in Sabbah, et al., Am J Physiol. (1991) 260:H1379-84, herein incorporated by reference in its entirety.
(§2) Heart failure was induced as described in Example 1. […] Half the dogs were treated with the peptide (n=5); the other half were treated with drug vehicle and served as controls (n=5). Peptide treatment was started upon induction of heart failure (HF), defined as left ventricular ejection fraction of approximately 30%. The daily dose of the peptide was 0.5 mg/kg/day administered intravenously for three months. Subcutaneous daily injections of saline were administered to the controls. Left ventricular tissue was harvested at the end of the three months of treatment. Mitochondria were isolated from the tissue. MK ATP activation was measured using the thallium-sensitive fluorophore assay kit and quantified in relative fluorescence units (RFU) per mg protein. Mitochondrial ATP to ADP ratio was measured using the bioluminescent ApoSENSOR™ assay kit (Enzo Life Sciences, Farmingdale, NY).

[2] = system: Mitochondrial ATP to ADP ratio; experiment: Mitochondrial ATP to ADP ratio (ApoSENSOR assay) in LV mitochondria, dog model of heart failure; conditions: LV mitochondria of HF dogs after three months, 0.5 mg/kg/day, n=5; control 0.38±0.04, p<0.05
Protocol: as §2

Taz1 = Taz1 mRNA in LV tissue (real-time PCR), dog model of heart failure; conditions: LV tissue of HF dogs, 3 months, 0.5 mg/kg once daily s.c., n=6; untreated HF decreased 2.25-fold vs normal; normalized to GAPDH
Protocol: as §1
(§3) Twelve dogs were subject to coronary microembolization-induced heart failure (LV ejection fraction ˜30%) as described in Example 1. […] RNA was prepared from LV tissue of all 12 dogs at the end of the treatment phase and from the LV of 6 normal (NL) dogs for comparison. mRNA levels of Taz1, MLCL AT1 and ALCAT1 were determined by real-time PCR. Changes in mRNA expression were expressed as fold changes using the CT Method with normalization to […] (GAPDH) as internal control.

MLCL AT1 = MLCL AT1 mRNA in LV tissue (real-time PCR), dog model of heart failure; conditions: LV tissue of HF dogs, 3 months, 0.5 mg/kg once daily s.c., n=6; untreated HF increased 2.60-fold vs normal; normalized to GAPDH
Protocol: as §1, §3

ALCAT1 = ALCAT1 mRNA in LV tissue (real-time PCR), dog model of heart failure; conditions: LV tissue of HF dogs, 3 months, 0.5 mg/kg once daily s.c., n=6; untreated HF increased 3.56-fold vs normal; normalized to GAPDH
Protocol: as §1, §3

[3] = plasma, peptide group, individual dogs, heart failure prior to initiating therapy

D-Arg-2′,6′-Dmt-Lys-Phe-NH2 ([dR][Dmt]KF-NH2) [aromatic-cationic peptide]
plasma TNF-alpha levels (FIG. 4), in words (TNF-alpha; treatment for 12 weeks): near normal levels | plasma TNF-alpha levels (FIG. 4), in words (TNF-alpha; treatment for six weeks): reduced TNF-alpha levels | TNF-α concentration, 6 Wk (TNF-alpha; plasma, individual HF dogs, 6 weeks after initiating therapy): 3.27 pg/mL and 3.08 pg/mL and 3.50 pg/mL and 3.16 pg/mL and 3.72 pg/mL and 3.12 pg/mL and 2.60 pg/mL | TNF-α concentration, 12 Wk (TNF-alpha; plasma, individual HF dogs, 12 weeks after initiating therapy): 1.14 pg/mL and 1.42 pg/mL and 1.18 pg/mL and 1.75 pg/mL and 1.69 pg/mL and 1.53 pg/mL and 1.35 pg/mL | TNF-α concentration, 6 Wk, Mean (TNF-alpha; plasma, mean of 7 HF dogs, 6 weeks after initiating therapy): 3.21 pg/mL | TNF-α concentration, 12 Wk, Mean (TNF-alpha; plasma, mean of 7 HF dogs, 12 weeks after initiating therapy): 1.44 pg/mL | TNF-α concentration, BL, Mean (TNF-alpha; plasma, peptide group mean (7 dogs), baseline (before HF and treatment)): 1.24 pg/mL | TNF-α concentration, PRE, Mean (TNF-alpha; plasma, peptide group mean (7 dogs), heart failure prior to initiating therapy): 4.36 pg/mL | TNF-α concentration, BL (TNF-alpha; plasma, peptide group, individual dogs, baseline (before HF and treatment)): 0.90 pg/mL and 0.97 pg/mL and 1.02 pg/mL and 1.85 pg/mL and 1.30 pg/mL and 1.11 pg/mL and 1.54 pg/mL | TNF-α concentration, PRE (TNF-alpha; [3]): 4.26 pg/ml (2×) and 3.96 pg/ml and 4.69 pg/ml and 4.59 pg/ml and 4.31 pg/ml and 4.42 pg/ml | plasma NT-pro BNP levels (FIG. 5), in words (NT-pro BNP; treatment for 12 weeks): normal or near normal levels | plasma NT-pro BNP levels (FIG. 5), in words (NT-pro BNP; treatment for six weeks): reduced NT-pro BNP levels | NT-pro BNP, 6Wk, AVG (NT-pro BNP; plasma, average of 7 HF dogs, 6 weeks after initiating therapy, 0.5 mg/kg/day): 667 pg/mL | NT-pro BNP, 12 Wk, AVG (NT-pro BNP; plasma, average of 7 HF dogs, 12 weeks after initiating therapy, 0.5 mg/kg/day): 354 pg/mL | NT-pro BNP, 6Wk (NT-pro BNP; plasma, individual HF dogs, 6 weeks after initiating therapy, 0.5 mg/kg/day): 695 pg/ml (2×) and 559 pg/ml and 796 pg/ml and 680 pg/ml and 593 pg/ml and 654 pg/ml | NT-pro BNP, 12 Wk (NT-pro BNP; plasma, individual HF dogs, 12 weeks after initiating therapy, 0.5 mg/kg/day): 299 pg/mL and 422 pg/mL and 234 pg/mL and 294 pg/mL and 417 pg/mL and 393 pg/mL and 423 pg/mL | NT-pro BNP, BL, AVG (NT-pro BNP; plasma, peptide group average (7 dogs), baseline before heart failure (before treatment)): 278 pg/mL | NT-pro BNP, Pre, AVG (NT-pro BNP; plasma, peptide group average (7 dogs), heart failure prior to initiating therapy): 1128 pg/mL | NT-pro BNP, BL (NT-pro BNP; plasma, peptide group, individual dogs, baseline before heart failure (before treatment)): 257 pg/mL and 203 pg/mL and 271 pg/mL and 320 pg/mL and 289 pg/mL and 265 pg/mL and 346 pg/mL | NT-pro BNP, Pre (NT-pro BNP; [3]): 1512 pg/mL and 1223 pg/mL and 1078 pg/mL and 1034 pg/mL and 1018 pg/mL and 1090 pg/mL and 941 pg/mL | activation of mK ATP [1]: 2775±254 relative fluorescence units (R | ATP/ADP (mitochondrial ATP to ADP ratio) [2]: 1.16±0.15 | Taz1 mRNA: attenuated decrease, fold (Taz1): 1.23 fold | MLCL AT1 mRNA: reduced increase, fold (MLCL AT1): 1.18 fold | ALCAT1 mRNA: reduced increase, fold (ALCAT1): 1.54 fold
